Data reported in article PMC3693456 (Bioorganic & medicinal chemistry letters, 2008).

Target: CB1 receptor (Rattus norvegicus, UniProt P20272)
Type: binding
Settings: rat brain membranes, PMSF; for CB1 receptor affinity (in words): qualitative statement

CB1 receptor, sequence (P20272 whole entry): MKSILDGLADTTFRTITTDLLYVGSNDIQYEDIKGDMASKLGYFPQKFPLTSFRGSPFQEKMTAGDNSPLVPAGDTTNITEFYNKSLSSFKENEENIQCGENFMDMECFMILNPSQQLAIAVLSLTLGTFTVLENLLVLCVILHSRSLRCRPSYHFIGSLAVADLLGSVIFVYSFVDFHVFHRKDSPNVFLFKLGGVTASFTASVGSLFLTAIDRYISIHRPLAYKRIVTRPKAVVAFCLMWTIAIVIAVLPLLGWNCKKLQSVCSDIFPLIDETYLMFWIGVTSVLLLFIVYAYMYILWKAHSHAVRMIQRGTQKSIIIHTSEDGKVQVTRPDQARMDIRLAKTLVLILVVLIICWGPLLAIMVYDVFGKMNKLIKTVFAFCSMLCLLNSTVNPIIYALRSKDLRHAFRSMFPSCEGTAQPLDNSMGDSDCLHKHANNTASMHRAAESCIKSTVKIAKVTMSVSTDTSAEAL

Row | Structure (SMILES) | CB1 receptor affinity (in words) | fold lower CB1 affinity compared to 7d (relative to 7d)
1 | C[C@H](CO)NC(=O)CCC/C=C\C/C=C\C/C=C\C/C=C\CCCCc1ccco1 [7q] | substantially weaker affinity | –
2 | C[C@H](CO)NC(=O)CCC/C=C\C/C=C\C/C=C\C/C=C\CCCCc1cccc2ccccc12 [7f] | loss of CB1 receptor affinity | –
3 | C[C@H](CO)NC(=O)CCC/C=C\C/C=C\C/C=C\C/C=C\CCCCc1ccc(Br)cc1 [7n] | most potent analog | –
4 | C[C@H](CO)NC(=O)CCC/C=C\C/C=C\C/C=C\C/C=C\CCCCCc1ccccc1 [7e] | – | over 5 fold
